Test results as given in ChEMBL document CHEMBL1833945, “Synthesis and anticonvulsant activity of new N-Mannich bases derived from 5-cyclopropyl-5-phenyl- and 5-cyclopropyl-5-(4-chlorophenyl)-imidazolidine-2,4-diones” (Bioorg Med Chem, 2011).
Active and inactive are the calls of the source. The calls are words filed in the database; no cut-off is given here.

Legend:
Rattus norvegicus [1] = species: Rattus norvegicus; assay: Protective index, ratio of TD50 for neurotoxicity in Sprague-Dawley albino rat to ED50 for inhibition of maximal electroshock-induced seizures in Sprague-Dawley albino rat; type: functional
Mus musculus [2] = assay: Anticonvulsant activity in CF1 albino mouse assessed as protection against electrically-induced seizure at 100 mg/kg, ip after 0.5 hrs by 6Hz psychomotor seizure test; type: functional, organism-based; design: dose 100 mg/kg
Mus musculus [3] = assay: Anticonvulsant activity in ip dosed CF1 albino mouse assessed as protection against subcutaneous pentylenetetrazole-induced seizures after 4 hrs; type: functional; conditions: read-out: MED
Mus musculus [4] = assay: Anticonvulsant activity in ip dosed CF1 albino mouse assessed as protection against maximal electroshock-induced seizures after 4 hrs; type: functional; conditions: read-out: MED
Rattus norvegicus [5] = assay: Neurotoxicity in Sprague-Dawley albino rat assessed as motor impairment at 50 mg/kg, po after 2 hrs by rotarod test; type: toxicity, organism-based; design: dose 50 mg/kg, route oral; conditions: in vivo
Rattus norvegicus [6] = assay: Anticonvulsant activity in Sprague-Dawley albino rat assessed as protection against maximal electroshock-induced seizures at 30 mg/kg, po after 0.5 hrs; type: functional, organism-based; design: dose 30 mg/kg
Rattus norvegicus [7] = assay: Anticonvulsant activity in po dosed Sprague-Dawley albino rat assessed as protection against subcutaneous pentylenetetrazole-induced seizures; type: functional
Rattus norvegicus [8] = assay: Anticonvulsant activity in po dosed Sprague-Dawley albino rat assessed as protection against maximal electroshock-induced seizures; type: functional
Rattus norvegicus [9] = assay: Neurotoxicity in Sprague-Dawley albino rat assessed as motor impairment at 30 mg/kg, po after 4 hrs by rotarod test; type: toxicity, organism-based; design: dose 30 mg/kg, route oral; conditions: in vivo
Rattus norvegicus [10] = assay: Anticonvulsant activity in Sprague-Dawley albino rat assessed as protection against maximal electroshock-induced seizures at 30 mg/kg, po after 2 hrs; type: functional, organism-based; design: dose 30 mg/kg
Rattus norvegicus [11] = assay: Anticonvulsant activity in Sprague-Dawley albino rat assessed as protection against subcutaneous pentylenetetrazole-induced seizures at 50 mg/kg, po after 0.25 hrs; type: functional, organism-based; design: dose 50 mg/kg
Rattus norvegicus [12] = assay: Neurotoxicity in Sprague-Dawley albino rat assessed as motor impairment at 50 mg/kg, po after 0.25 hrs by rotarod test; type: toxicity, organism-based; design: dose 50 mg/kg, route oral; conditions: in vivo
Rattus norvegicus [13] = assay: Neurotoxicity in Sprague-Dawley albino rat assessed as motor impairment at 30 mg/kg, po after 1 hrs by rotarod test; type: toxicity, organism-based; design: dose 30 mg/kg, route oral; conditions: in vivo
Rattus norvegicus [14] = assay: Anticonvulsant activity in Sprague-Dawley albino rat assessed as protection against maximal electroshock-induced seizures at 30 mg/kg, po after 1 hrs; type: functional, organism-based; design: dose 30 mg/kg
Rattus norvegicus [15] = assay: Neurotoxicity in Sprague-Dawley albino rat assessed as motor impairment at 50 mg/kg, po after 0.5 hrs by rotarod test; type: toxicity, organism-based; design: dose 50 mg/kg, route oral; conditions: in vivo
Rattus norvegicus [16] = assay: Anticonvulsant activity in Sprague-Dawley albino rat assessed as protection against maximal electroshock-induced seizures at 30 mg/kg, po after 4 hrs; type: functional, organism-based; design: dose 30 mg/kg
Rattus norvegicus [17] = assay: Neurotoxicity in Sprague-Dawley albino rat assessed as motor impairment at 30 mg/kg, po after 0.5 hrs by rotarod test; type: toxicity, organism-based; design: dose 30 mg/kg, route oral; conditions: in vivo
[18] = Neurotoxicity in oral dosed Sprague-Dawley albino rat assessed as motor impairment by rotarod test; type: toxicity, organism-based; conditions: in vivo
Mus musculus [19] = assay: Anticonvulsant activity in ip dosed CF1 albino mouse assessed as protection against maximal electroshock-induced seizures after 0.5 hrs; type: functional; conditions: read-out: MED
Rattus norvegicus [20] = species: Rattus norvegicus
Description: Protective index, ratio of TD50 for neurotoxicity in Sprague-Dawley albino rat to ED50 for inhibition of subcutaneous pentylenetetrazole-induced seizures in Sprague-Dawley albino rat

Rattus norvegicus [21] = assay: Anticonvulsant activity in Sprague-Dawley albino rat assessed as protection against maximal electroshock-induced seizures at 30 mg/kg, po after 0.25 hrs; type: functional, organism-based; design: dose 30 mg/kg
Rattus norvegicus [22] = assay: Neurotoxicity in Sprague-Dawley albino rat assessed as motor impairment at 50 mg/kg, po after 1 hrs by rotarod test; type: toxicity, organism-based; design: dose 50 mg/kg, route oral; conditions: in vivo
Rattus norvegicus [23] = assay: Neurotoxicity in Sprague-Dawley albino rat assessed as motor impairment at 30 mg/kg, po after 2 hrs by rotarod test; type: toxicity, organism-based; design: dose 30 mg/kg, route oral; conditions: in vivo
Mus musculus [24] = assay: Neurotoxicity in CF1 albino mouse assessed as loss of rotard grasping at 300 mg/kg, ip after 0.5 hrs by rotarod test; type: toxicity, organism-based; design: dose 300 mg/kg, route intraperitoneal; conditions: in vivo
Rattus norvegicus [25] = assay: Anticonvulsant activity in po dosed Sprague-Dawley albino rat assessed as time to peak effect; type: functional
Mus musculus [26] = assay: Anticonvulsant activity in ip dosed CF1 albino mouse assessed as protection against subcutaneous pentylenetetrazole-induced seizures after 0.5 hrs; type: functional; conditions: read-out: MED
Mus musculus [27] = assay: Neurotoxicity in CF1 albino mouse assessed as loss of rotard grasping at 300 mg/kg, ip after 4 hrs by rotarod test; type: toxicity, organism-based; design: dose 300 mg/kg, route intraperitoneal; conditions: in vivo
Rattus norvegicus [28] = assay: Neurotoxicity in Sprague-Dawley albino rat assessed as motor impairment at 50 mg/kg, po after 4 hrs by rotarod test; type: toxicity, organism-based; design: dose 50 mg/kg, route oral; conditions: in vivo
Mus musculus [29] = assay: Anticonvulsant activity in ip dosed CF1 albino mouse assessed as protection against electrically-induced seizure by 6Hz psychomotor seizure test; type: functional
Mus musculus [30] = assay: Anticonvulsant activity in CF1 albino mouse assessed as protection against electrically-induced seizure at 100 mg/kg, ip after 2 hrs by 6Hz psychomotor seizure test; type: functional, organism-based; design: dose 100 mg/kg
Mus musculus [31] = assay: Anticonvulsant activity in CF1 albino mouse assessed as time to peak effect at 100 mg/kg, ip; type: functional; conditions: route intraperitoneal
Mus musculus [32] = assay: Anticonvulsant activity in CF1 albino mouse assessed as protection against electrically-induced seizure at 100 mg/kg, ip after 1 hrs by 6Hz psychomotor seizure test; type: functional, organism-based; design: dose 100 mg/kg
Rattus norvegicus [33] = assay: Neurotoxicity in Sprague-Dawley albino rat assessed as motor impairment at 30 mg/kg, po after 0.25 hrs by rotarod test; type: toxicity, organism-based; design: dose 30 mg/kg, route oral; conditions: in vivo
[34] = Lipophilicity, log P of compound; type: physicochemical; conditions: octanol/water

logP [34]: 1.66
SMILES: O=C1NC(=O)C(c2ccccc2)(C2CC2)N1 (centres undefined)
PI (Rattus norvegicus [1]): 13.47 | Activity (Mus musculus [2]): Active | minimal effective dose (Mus musculus [3]): 100 mg/kg | minimal effective dose (Mus musculus [4]): 30 mg/kg | Activity (Rattus norvegicus [5]): Non-toxic | Activity (Rattus norvegicus [6]): Active | ED50 (Rattus norvegicus [7]): 57.3 mg/kg | ED50 (Rattus norvegicus [8]): 5.76 mg/kg | Activity (Rattus norvegicus [9]): Non-toxic | Activity (Rattus norvegicus [10]): Active | Activity (Rattus norvegicus [11]): inactive | Activity (Rattus norvegicus [12]): Non-toxic | Activity (Rattus norvegicus [13]): Non-toxic | Activity (Rattus norvegicus [14]): Active | Activity (Rattus norvegicus [15]): Non-toxic | Activity (Rattus norvegicus [16]): Active | Activity (Rattus norvegicus [17]): Non-toxic | TD50 [18]: 77.6 mg/kg | minimal effective dose (Mus musculus [19]): 30 mg/kg | PI (Rattus norvegicus [20]): 1.35 | Activity (Rattus norvegicus [21]): Active | Activity (Rattus norvegicus [22]): Non-toxic | Activity (Rattus norvegicus [23]): Non-toxic | Activity (Mus musculus [24]): Toxic | Time (Rattus norvegicus [25]): 2 h | minimal effective dose (Mus musculus [26]): 30 mg/kg | Activity (Mus musculus [27]): Toxic | Activity (Rattus norvegicus [28]): Non-toxic | ED50 (Mus musculus [29]): 26.1 mg/kg | Activity (Mus musculus [30]): Active | Time (Mus musculus [31]): 2 h | Activity (Mus musculus [32]): Active | Activity (Rattus norvegicus [33]): Non-toxic
